Target: T1, CXCR7 (Homo sapiens, UniProt P25106)
T1 construct: host or cells: CHO-K1 (PathHunter CHO-K1 CXCR7 b-arrestin cell line, stably transfected)
Experiment: PathHunter CHO-K1 CXCR7 b-arrestin recruitment assay (CXCR7 agonistic activity)
Assay type: cell-based
Details: PathHunter CHO-K1 CXCR7 b-arrestin cell line
In short: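 Stable CHO-K1 line with C-terminally ProLink-tagged CXCR7 and β-arrestin 2–EA fusion; β-arrestin recruitment restores β-gal activity, read by chemiluminescence after 1 h RT detection. Cells seeded 24 h, starved in OPTIMEM 3–4 h, exposed to compounds 90 min at 37 °C in HBSS/HEPES/BSA. Geometric-mean EC50 from repeated measurements.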

T1 sequence (P25106 whole entry): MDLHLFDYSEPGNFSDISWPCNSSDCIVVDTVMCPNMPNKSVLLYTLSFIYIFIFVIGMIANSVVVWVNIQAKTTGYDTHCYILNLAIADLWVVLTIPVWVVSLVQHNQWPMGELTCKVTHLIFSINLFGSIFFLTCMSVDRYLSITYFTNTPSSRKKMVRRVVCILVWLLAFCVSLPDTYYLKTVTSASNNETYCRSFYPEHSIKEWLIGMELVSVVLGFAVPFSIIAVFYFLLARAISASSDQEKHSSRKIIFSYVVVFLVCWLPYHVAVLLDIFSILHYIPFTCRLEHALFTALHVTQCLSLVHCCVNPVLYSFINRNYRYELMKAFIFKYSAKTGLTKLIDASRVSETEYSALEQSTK
T1 sequence (P32121 whole entry partner): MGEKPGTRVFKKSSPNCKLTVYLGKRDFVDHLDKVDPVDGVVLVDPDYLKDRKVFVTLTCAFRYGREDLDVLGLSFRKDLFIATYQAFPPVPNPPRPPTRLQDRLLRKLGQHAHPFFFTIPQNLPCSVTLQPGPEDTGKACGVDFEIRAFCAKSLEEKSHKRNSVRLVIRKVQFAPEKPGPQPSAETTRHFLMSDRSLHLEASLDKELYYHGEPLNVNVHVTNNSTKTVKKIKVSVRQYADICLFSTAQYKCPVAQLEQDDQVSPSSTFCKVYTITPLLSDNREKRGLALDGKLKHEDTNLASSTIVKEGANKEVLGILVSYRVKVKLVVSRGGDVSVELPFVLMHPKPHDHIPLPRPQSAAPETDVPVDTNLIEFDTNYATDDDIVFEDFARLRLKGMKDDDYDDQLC

EC50 | SMILES
0.007 µM | CNCCN(Cc1ccccc1C(F)(F)F)C(=O)CNc1cccc2c1CCN(C(=O)C1CC1)C2 [Example 385, 2-(2-Cyclopropanecarbonyl-1,2,3,4-tetrahydro-isoquinolin-5-ylamino)-N-(2-methylamino-ethyl)-N-(2-trifluoromethyl-benzyl)-acetamide]
0.007 µM | CN(C)CCN(Cc1ccc(F)cc1C(F)(F)F)C(=O)CNc1cccc2c1CCN(CC1CC1)C2 [Example 54, 2-(2-Cyclopropylmethyl-1,2,3,4-tetrahydro-isoquinolin-5-ylamino)-N-(2-dimethylamino-ethyl)-N-(4-fluoro-2-trifluoromethyl-benzyl)-acetamide]
0.028 µM | N#CCCN(Cc1ccccc1C(F)(F)F)C(=O)CNc1cccc2c1CCN(CC1CC1)C2 [Example 72, N-(2-Cyano-ethyl)-2-(2-cyclopropylmethyl-1,2,3,4-tetrahydro-isoquinolin-5-ylamino)-N-(2-trifluoromethyl-benzyl)-acetamide]
0.016 µM | Cc1csc(CN(CCN(C)C)C(=O)CNc2cccc3c2CCN(CC2CC2)C3)n1 [Example 266, 2-(2-Cyclopropylmethyl-1,2,3,4-tetrahydro-isoquinolin-5-ylamino)-N-(2-dimethylamino-ethyl)-N-(4-methyl-thiazol-2-ylmethyl)-acetamide]
0.02 µM | CNCCN(Cc1ncccc1C(F)(F)F)C(=O)CNc1cccc2c1CCN(C(=O)C(C)C)C2 [compound 412, 2-(2-Isobutyryl-1,2,3,4-tetrahydro-isoquinolin-5-ylamino)-N-(2-methylamino-ethyl)-N-(3-trifluoromethyl-pyridin-2-ylmethyl)-acetamide]
0.008 µM | O=C(CNc1cccc2c1CCN(CC1CC1)C2)N(CCN1CCOCC1)Cc1ccccc1C(F)(F)F [Example 64, 2-(2-Cyclopropylmethyl-1,2,3,4-tetrahydro-isoquinolin-5-ylamino)-N-(2-morpholin-4-yl-ethyl)-N-(2-trifluoromethyl-benzyl)-acetamide]
0.279 µM | COCCN1CCc2c(CCC(=O)N(CCC(C)(C)C)Cc3ncccc3C)cccc2C1 [Example 338, N-(3,3-Dimethyl-butyl)-3-[2-(2-methoxy-ethyl)-1,2,3,4-tetrahydro-isoquinolin-5-yl]-N-(3-methyl-pyridin-2-ylmethyl)-propionamide]
0.013 µM | O=C(CNc1cccc2c1CCN(CC1CC1)C2)N(Cc1ccccc1C(F)(F)F)CC1COCCO1 (stereo not shown) [Example 226, 2-(2-Cyclopropylmethyl-1,2,3,4-tetrahydro-isoquinolin-5-ylamino)-N-[1,4]dioxan-2-ylmethyl-N-(2-trifluoromethyl-benzyl)-acetamide]
0.004 µM | CN(C)CCN(Cc1ccccc1)C(=O)CCc1cccc2c1CCN(CC1CC1)C2 [compound 161, N-Benzyl-3-(2-cyclopropylmethyl-1,2,3,4-tetrahydro-isoquinolin-5-yl)-N-(2-dimethylamino-ethyl)-propionamide]
0.155 µM | CCN1CCc2cccc(NCC(=O)N(CCN(C)C)Cc3ccc(C(F)(F)F)cc3)c2C1 [compound 506]
0.001 µM | O=C(CNc1cccc2c1CCN(CC1CC1)C2)N(CCN1CCCC1)Cc1ccccc1C(F)(F)F [Example 62, 2-(2-Cyclopropylmethyl-1,2,3,4-tetrahydro-isoquinolin-5-ylamino)-N-(2-pyrrolidin-1-yl-ethyl)-N-(2-trifluoromethyl-benzyl)-acetamide]
0.184 µM | COCCN1CCc2c(/C=C/C(=O)N(CCN3CCC(F)(F)CC3)Cc3ncccc3Cl)cccc2C1 [Example 326, (E)-N-(3-Chloro-pyridin-2-ylmethyl)-N-[2-(4,4-difluoro-piperidin-1-yl)-ethyl]-3-[2-(2-methoxy-ethyl)-1,2,3,4-tetrahydro-isoquinolin-5-yl]-acrylamide]
0.003 µM | C=CCN(C)CCN(Cc1ccccc1C(F)(F)F)C(=O)CNc1cccc2c1CCN(CC1CC1)C2 [Example 245, N-[2-(Allyl-methyl-amino)-ethyl]-2-(2-cyclopropylmethyl-1,2,3,4-tetrahydro-isoquinolin-5-ylamino)-N-(2-trifluoromethyl-benzyl)-acetamide]
0.117 µM | CN(C)CCN(Cc1ccc(OC(F)(F)F)cc1)C(=O)CNc1cccc2c1CCN(CC1CC1)C2 [Example 228, 2-(2-Cyclopropylmethyl-1,2,3,4-tetrahydro-isoquinolin-5-ylamino)-N-(2-dimethylamino-ethyl)-N-(4-trifluoromethoxy-benzyl)-acetamide]
0.005 µM | CN(C)CCN(Cc1ccccc1C(F)(F)F)C(=O)CNc1cccc2c1CCN(C(=O)[C@@H]1C[C@@H]1F)C2 (single isomer, unassigned) [Example 363b, N-(2-Dimethylamino-ethyl)-2-[2-((1 S*,2S*)-2-fluoro-cyclopropanecarbonyl)-1,2,3,4-tetrahydro-isoquinolin-5-ylamino]-N-(2-trifluoromethyl-benzyl)-acetamide]
0.005 µM | CN(C)CCN(Cc1ccccc1C(F)(F)F)C(=O)CNc1cccc2c1CCN(C1CCCC1)C2 [Example 210, 2-((2-Cyclopentyl-1,2,3,4-tetrahydroisoquinolin-5-yl)amino)-N-(2-(dimethylamino)ethyl)-N-(2-(trifluoromethyl)benzyl)acetamide]
0.035 µM | C=CCOC(=O)N1CCc2c(cccc2NCC(=O)N(CCNC)Cc2ccccc2C(F)(F)F)C1 [compound 397, 5-({[(2-Methylamino-ethyl)-(2-trifluoromethyl-benzyl)-carbamoyl]-methyl}-amino)-3,4-dihydro-1H-isoquinoline-2-carboxylic acid allyl ester]
0.002 µM | CN(C)CCN(Cc1ccccc1Cl)C(=O)/C=C/c1cccc2c1CCN(CC1CC1)C2 [compound 146, (E)-N-(2-Chloro-benzyl)-3-(2-cyclopropylmethyl-1,2,3,4-tetrahydro-isoquinolin-5-yl)-N-(2-dimethylamino-ethyl)-acrylamide]
0.073 µM | CC(C)N1CCc2c(cccc2NCC(=O)N(CCN(C)C)Cc2ccccc2)C1 [compound 109]
0.015 µM | CCC(=O)N1CCc2c(cccc2NCC(=O)N(CCN(C)C)Cc2ccccc2C)C1 [Example 15, N-(2-Dimethylamino-ethyl)-N-(2-methyl-benzyl)-2-(2-propionyl-1,2,3,4-tetrahydro-isoquinolin-5-ylamino)-acetamide]
0.115 µM | N#CCCN(Cc1ccccc1)C(=O)CNc1cccc2c1CCN(CC1CC1)C2 [Example 67, N-Benzyl-N-(2-cyano-ethyl)-2-(2-cyclopropylmethyl-1,2,3,4-tetrahydro-isoquinolin-5-ylamino)-acetamide]
0.098 µM | Cc1cccc(CN(C(=O)/C=C/c2cccc3c2CCN(CC2CC2)C3)C2CC2)c1C [compound 141]
0.02 µM | CN(C)CCN(Cc1ncccc1Cl)C(=O)CNc1cccc2c1CCN(C(=O)[C@@H]1C[C@@H]1F)C2 (racemic) [Example 293, rac-N-(3-Chloro-pyridin-2-ylmethyl)-N-(2-dimethylamino-ethyl)-2-[2-((1S*,2S*)-2-fluoro-cyclopropanecarbonyl)-1,2,3,4-tetrahydro-isoquinolin-5-ylamino]-acetamide]

SMILES | EC50
CN(C)CCN(Cc1ccccc1C(F)(F)F)C(=O)CNc1cccc2c1CN(CC1CC1)CC2 [compound 475] | 0.121 µM
O=C(Cc1cccc2c1CCN(CC1CC1)C2)N(CCN1CCCC1)Cc1ccccc1 [Example 3, N-Benzyl-2-(2-cyclopropylmethyl-1,2,3,4-tetrahydro-isoquinolin-5-yl)-N-(2-pyrrolidin-1-yl-ethyl)-acetamide] | 0.042 µM

Source: US9920010B2, “CXCR7 receptor modulators” (IDORSIA PHARMACEUTICALS LTD, priority 2013, dated 2018)
